The values below come from paper PMC12208134, “Structure-activity relationships of 1,5-dihydro-2H-benzo[b][1,4]diazepine-2,4(3H)-diones as inhibitors of Trypanosoma cruzi” (RSC medicinal chemistry, 2025).

Data set [1] concerns intracellular T. cruzi amastigotes. In words: T. cruzi intracellular potency assay (high content imaging). It is filed as cell-based, Trypanosoma cruzi. Also on record: key to Max Effect (T. cruzi): % inhibition; 0% = DMSO control, 100% = 16 μM nifurtimox control. The gist of the method:
(§1)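 Silvio X10/7 trypomastigotes infected Vero cells overnight at MOI10; washed infected cells were exposed to compounds 96 h at 37°C in MEM/1% FCS. Hoechst-stained imaging scored percent infected cells (potency) and host-cell number (Vero toxicity), normalised to 16 μM nifurtimox and DMSO controls; four-parameter fit.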

Data set [2] has as its system T. cruzi epimastigotes. Kind of data set: T. cruzi oxygen consumption assay. It is filed as cell-based. The following applies: Trypanosoma cruzi, read-out: T. cruzi oxygen consumption pIC50 (converted). Here is the method: T. cruzi oxygen consumption assay
Oxygen consumption was measured using T. cruzi epimastigotes and the MitoXpress Xtra Oxygen Consumption Assay (Agilent) as previously reported. ^6

Data set [3] deals with Tc-CYP51 (Trypanosoma cruzi, UniProt Q7Z1V1). Kind of data set: T. cruzi sterol 14α-demethylase (CYP51) enzyme assay. It is filed as biochemical. Here is the method:
T. cruzi sterol 14α-demethylase (CYP51) enzyme assay
Potency against T. cruzi CYP51 was determined using a previously described fluorescence assay. Average potency for compound 1 was determined with three experimental replicates. Potencies in Fig.3 are from single experimental replicates. ^5

Data set [4] addresses Tc-HisRS (Trypanosoma cruzi, UniProt Q4DA54). In words: biochemical.
Experimental: TcHisRS assay wells contained TcHisRS assay buffer (30 mM Tris; pH 8, 140 mM NaCl, 40 mM MgCl2, 30 mM KCl, 0.01% (v/v) Brij and 1 mM DTT) plus 50 nM TcHisRS, 8 μM ATP, 5 μM L-histidine and 1 U/mL pyrophosphatase. Assays were run for 2 hours.
Data set [5] addresses Tc-MetRS (Trypanosoma cruzi, UniProt Q4D6H2). In words: T. cruzi aminoacyl tRNA synthetase enzyme assay (TcMetRS). It is filed as biochemical. Here is the method:
T. cruzi aminoacyl tRNA synthetase enzyme assays
Assays were run for 2 hours.

Data set [6] in a line: Mouse liver microsomal intrinsic clearance. It is filed as in vitro ADME. The following applies: mouse liver microsomes.
Data set [7] in a line: Human liver microsomal intrinsic clearance. It is filed as in vitro ADME. The following applies: human liver microsomes. (In general: Microsomes from liver hold many membrane-bound enzymes, among them those of drug oxidation.)
In data set [8] the target is T. cruzi proteasome (Trypanosoma cruzi, UniProt V5BU39). The protocol: T. cruzi proteasome enzyme assay
The pIC50 of compound 1 was measured in a T. cruzi proteasome assay (N = 2 experimental replicates, each with n = 3 technical replicates) as previously described, using a recombinantly expressed Δβ1Δβ2 mutant proteasome (measuring chymotrypsin site activity only). ^4

The test system of data set [9] is T. cruzi trypomastigotes. In words: T. cruzi trypomastigote assay. It is filed as cell-based, Trypanosoma cruzi. The protocol:
T. cruzi trypomastigote assay
Trypomastigote assays were carried out with T. cruzi Silvio X10/7 trypomastigotes using the protocol previously described. ^1

Data set [10] relates to intracellular T. cruzi amastigotes. In words: Rate-of-kill assay against intracellular amastigotes. It is filed as cell-based, Trypanosoma cruzi. Here is the method:
T. cruzi intracellular potency and rate-of-kill assay (high content imaging) ^1
Silvio X10/7 T. cruzi trypomastigotes were incubated at 37°C 5% CO2 with 1.6×10^7 Vero cells overnight at MOI10 in MEM media supplemented with 10% foetal calf serum (FCS). Extracellular parasites were removed by aspirating cell culture supernatant, and washing Vero monolayer with 10 ml serum-free MEM three times. Vero cells were then harvested by trypsinization and dispensed at 2×10^3 per well (50 μl in MEM/ 1% FCS) into 384 well plates pre-stamped with compounds in DMSO using automated washer/ dispenser EL406 and liquid handling software (Biotek). Plates were then incubated at 37°C in 5% CO2 for 96 h. For rate-of-kill determination, plates were incubated for 24h, 48h, 72h and 96h.
Plates were subsequently fixed with 4% formaldehyde for 20 min, permeabilised and stained with 5 μgml^-1 Hoechst 33342/ 0.1% Triton/ PBS Thimerosal 20 min. […] Images were analysed with an algorithm generated in Columbus (PerkinElmer) to segment Vero cell nuclei, Vero cell cytoplasm and parasite nuclei/ kinetoplasts, reporting number of amastigotes per Vero cell, percent infected Vero cells and total number of Vero cells. Compound potencies against T. cruzi parasites were calculated in IDBS Activitybase using percent infected Vero cells and Vero toxicity curves generated using number of host cells. […]

Data set [11] is described as follows: ChromLogD pH7.4 (chromatographic hydrophobicity index), PFI, LLE. The text has this: [23] Alongside PFI, LLE (ligand lipophilic efficiency, T. cruzi pIC50 - ChromLogDpH7.4) was also monitored to identify changes where the impact on potency was not driven by increasing lipophilicity.
For data set [12], the system named is host Vero cell. In words: Vero host cell toxicity in the intracellular T. cruzi assay. It is filed as cell-based. Also on record: key to Max Effect (Vero): % inhibition; 0% = DMSO control, 100% = 16 μM nifurtimox control. The gist of the method:
as §1

Data set [13] in a line: Kinetic aqueous solubility by CAD. It is filed as physicochemical. As to conditions: kinetic from dmso stock; kinetic, CAD; read-out: Aqueous solubility.
For data set [14], the system named is T. cruzi. More on the design: method as in PMID 24827034, PMID 29352704. The following applies: clinical trials; cited from earlier work.
Data set [15] concerns T. cruzi trypomastigotes. More on the design: method as in PMID 30001347. The following applies: cited from earlier work.
Data set [16] relates to intracellular T. cruzi. In words: T. cruzi washout assay. It is filed as cell-based, Trypanosoma cruzi. The following applies: 25 x IC50 for 16 days, infected Vero cells. Here is the method: For any hits identified and successfully triaged, the initial focus of hit-expansion is to identify compounds with a suitable profile to run in a washout assay.,[21] In this assay, intracellular T. cruzi are treated with high doses of compounds for an extended duration (25x IC50 for 8 – 16 days), followed by compound washout and assessment of parasite relapse over 60 days to assess ability to clear all parasites, including any persisters. […] Compound series with a profile equal to or better than benznidazole can then be progressed to an in vivo efficacy model of chronic Chagas disease with a high probability of success.
At this stage, we were keen to examine our options for progression into the T. cruzi washout assay, [12],[21] and decided to move forward with 2, 14 and 16 to give coverage across both chemotypes. […] After this dosing period, the compound was washed off the infected cells, and the host cell monolayer was monitored for egressed parasites. The first day egressed parasites were detected post washout was noted down as the relapse day. In this assay, posaconazole, which is known to be ineffective in the clinic, relapsed after 10 days and benznidazole, used as the bench-mark clinical compound, relapsed after 31 / 35 days (2 replicates). We were therefore looking for compounds that relapsed at an equivalent time to benznidazole, or later, to be considered worth pursuing further.
Intracellular T. cruzi washout assays were carried out with the Silvio X10/7 strain using the protocol previously described. ^1

Molecules are shown by their SMILES. Values after ≈ are worked out from the molar mass of the structure shown. Values joined by “and” are separate entries in the source; they are usually repeats but may differ in a detail not shown here. Equal entries are not always repeated. Where two headings read alike, the source gives them in different places.

Chain of Tc-CYP51 (Q7Z1V1 whole entry): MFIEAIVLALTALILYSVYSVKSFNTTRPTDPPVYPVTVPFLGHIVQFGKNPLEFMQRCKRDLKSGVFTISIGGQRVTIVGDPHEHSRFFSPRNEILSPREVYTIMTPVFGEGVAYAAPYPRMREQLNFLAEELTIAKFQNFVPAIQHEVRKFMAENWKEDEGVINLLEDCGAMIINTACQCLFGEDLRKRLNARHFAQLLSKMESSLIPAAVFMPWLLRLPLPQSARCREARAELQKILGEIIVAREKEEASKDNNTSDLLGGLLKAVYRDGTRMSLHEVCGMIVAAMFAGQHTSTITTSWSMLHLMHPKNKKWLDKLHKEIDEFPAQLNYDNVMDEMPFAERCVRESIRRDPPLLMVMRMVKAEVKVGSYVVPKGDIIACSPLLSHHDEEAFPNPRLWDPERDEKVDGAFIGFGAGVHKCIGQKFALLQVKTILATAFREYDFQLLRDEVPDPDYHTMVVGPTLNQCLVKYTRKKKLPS
Chain of Tc-MetRS (Q4D6H2 entry or part of it): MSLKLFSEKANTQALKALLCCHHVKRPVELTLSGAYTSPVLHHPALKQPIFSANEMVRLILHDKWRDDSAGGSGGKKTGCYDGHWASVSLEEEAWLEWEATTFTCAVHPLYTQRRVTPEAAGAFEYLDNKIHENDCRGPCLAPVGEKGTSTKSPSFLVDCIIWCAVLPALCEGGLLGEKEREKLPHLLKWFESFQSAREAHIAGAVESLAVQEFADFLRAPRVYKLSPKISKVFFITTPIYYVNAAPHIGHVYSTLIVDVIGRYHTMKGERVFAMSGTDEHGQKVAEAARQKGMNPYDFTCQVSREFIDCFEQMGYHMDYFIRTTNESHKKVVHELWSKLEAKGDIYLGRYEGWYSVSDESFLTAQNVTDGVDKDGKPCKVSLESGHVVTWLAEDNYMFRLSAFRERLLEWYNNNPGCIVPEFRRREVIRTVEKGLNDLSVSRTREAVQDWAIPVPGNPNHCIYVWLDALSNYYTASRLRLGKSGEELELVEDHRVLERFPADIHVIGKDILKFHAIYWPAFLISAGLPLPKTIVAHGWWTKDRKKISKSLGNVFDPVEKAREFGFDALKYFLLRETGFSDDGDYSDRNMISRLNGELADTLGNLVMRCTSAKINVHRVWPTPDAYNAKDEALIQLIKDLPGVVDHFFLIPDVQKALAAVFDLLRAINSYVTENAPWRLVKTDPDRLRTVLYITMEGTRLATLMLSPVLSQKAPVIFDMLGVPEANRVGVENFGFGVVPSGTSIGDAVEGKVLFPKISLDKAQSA
Chain of Tc-HisRS (Q4DA54 entry or part of it): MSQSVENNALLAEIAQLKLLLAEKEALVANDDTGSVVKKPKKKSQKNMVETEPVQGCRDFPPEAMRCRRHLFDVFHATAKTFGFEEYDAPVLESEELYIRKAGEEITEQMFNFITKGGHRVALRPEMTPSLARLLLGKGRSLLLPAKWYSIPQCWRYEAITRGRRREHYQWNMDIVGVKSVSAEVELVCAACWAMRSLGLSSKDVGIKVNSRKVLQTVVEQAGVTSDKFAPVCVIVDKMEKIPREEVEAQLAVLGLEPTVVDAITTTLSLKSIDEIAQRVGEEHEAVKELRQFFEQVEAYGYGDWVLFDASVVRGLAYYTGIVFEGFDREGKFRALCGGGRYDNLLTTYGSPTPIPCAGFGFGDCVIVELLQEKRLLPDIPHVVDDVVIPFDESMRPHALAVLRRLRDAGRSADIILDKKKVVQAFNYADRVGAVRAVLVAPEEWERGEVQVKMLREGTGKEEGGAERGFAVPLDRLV

Usually chromatographic logD stands for lipophilicity estimated from chromatographic retention. The EC50 is the concentration needed to bring the measured effect to its halfway point. Broadly, the solubility is the dissolved amount per volume that the medium holds. On to `Cc1ccc(NC(=O)NC2C(=O)Nc3ccccc3N(c3ccccc3)C2=O)cc1` (stereo not drawn) [Compound 1, 1-(2,4-dioxo-1-phenyl-2,3,4,5-tetrahydro-1H-benzo[b][1,4]diazepin-3-yl)-3-(p-tolyl)urea], for which the Emax is 84% in data set [1] (Trypanosoma cruzi, individual replicate, read-out: Max Effect (T. cruzi)); 85% in [3] (individual replicate, read-out: Tc CYP51 Max Effect); 77% in data set [9] (Trypanosoma cruzi, individual replicate, read-out: Tc-Trypo Max Effect). In addition, the IC50 in data set [1] (Trypanosoma cruzi, intracellular amastigotes in Vero cells, 96 h, mean of N ≥ 3, read-out: T. cruzi pIC50 (converted)) was 1 µM; in data set [2], over 50.1 µM; in [3] (average of three experimental replicates, read-out: Tc-CYP51 pIC50 (converted)) it was 15.8 µM; in data set [3] (individual replicate, read-out: Tc CYP51 pIC50 (converted)), 6.31 µM and 25.1 µM; in data set [4], over 100 µM; in data set [5], over 100 µM. Further, the IC50 in data set [9] (Trypanosoma cruzi, read-out: T. cruzi trypomastigote pIC50 (converted)) is 0.251 µM; in data set [12] (Chlorocebus sabaeus, host Vero cell, read-out: Vero pIC50 (converted)), over 50.1 µM. Moreover, the “Hill slope (T. cruzi)” value in data set [1] (individual replicate) was 2.7 and 4.5 and 6.2 and 2.8 and 1.2 and 2.0 and 4.2. The “Max Effect (T. cruzi)” value in data set [1] (individual replicate) was 87 and 88 and 90 and 83. For the same compound, the “pEC50 (T. cruzi)” value in data set [1] (individual replicate) was 5.8 and 6.2 and 6.1 and 6.0. Besides, the “Tc CYP51 Hill” value in data set [3] (individual replicate) was 1.3 and 1.1 and 1.4. Also, the “Tc CYP51 Max Effect” value in data set [3] (individual replicate) is 83 and 84. Also, in data set [3] (urea series), the “fold more potent against the parasites than against Tc-CYP51” value was 10 fold. Also, the “MLM CLi” value in [6] amounted to 0.8 mL/min/g. For the same compound, the “HLM CLi” value in [7] is under 0.4 mL/min/g. For the same compound, the “Tc Proteasome Hill” value in data set [8] (individual replicate) is 1.1 and 0.9. In addition, the “Tc Proteasome Max Effect” value in data set [8] (individual replicate) is 62 and 68. The “Tc Proteasome pIC50” value in data set [8] (individual replicate) is 4.0 and 4.2. Moreover, in data set [8] (Δβ1Δβ2 mutant proteasome, chymotrypsin site), the “Tc-proteasome pIC50” value is recorded as 4.1. In addition, the “Tc-Trypo Hill” value in [9] (individual replicate) is 0.9 and 1.4 and 1.2 and 1.3. The “Tc-Trypo Max Effect” value in [9] (individual replicate) is 79. Besides, in data set [9] (individual replicate), the “Tc-Trypo pEC50” value was 7.2 and 7.0 and 6.3 and 6.4. In addition, the “Rate-of-Kill: cidal activity within” value in [10] is “Cidal activity within 96 hours ^f”. Besides, in [11] (ChromLogDpH7.4 + no. aromatic rings), the PFI is 7.6. Also, the chromatographic logD in [11] (pH 7.4) turned out to be 4.6. In data set [12] (Chlorocebus sabaeus, Vero, individual replicate), this compound showed an EC50 of over 50.1 µM. The “Max Effect (Vero)” value in data set [12] (individual replicate) is 13 and 1.41 and 11 and 15 and 2.25 and -0.282. Further, the solubility in [13] stood at 35 µM (≈ 14 µg/mL).
For the compound `C[C@@H](c1nc(-c2ccc(C#N)cc2)cs1)[C@@](Cn1cncn1)(OCOP(=O)(O)O)c1ccc(F)cc1F` [fosravuconazole], the “treatment failures in patients” value in data set [14] is on record as 70 – 90%.
`CC[C@@H]([C@H](C)O)n1ncn(-c2ccc(N3CCN(c4ccc(OC[C@@H]5CO[C@@](Cn6cncn6)(c6ccc(F)cc6F)C5)cc4)CC3)cc2)c1=O` [posaconazole]: the activity against trypomastigotes entry in data set [15] is “only very weakly active”. The “treatment failures in patients” value in data set [14] is 70 – 90%. In addition, the “relapse day post washout” value in data set [16] came to 10 days.
